Measurements published in patent US7268212B2, “Ligand of G protein-coupled receptor protein and DNA thereof” (Takeda Pharmaceutical Company Limited, priority 2001, dated 2007).
No end group written: not given here.

Molecular target: T1, GPR7 (Homo sapiens, UniProt P48145)
T1 sequence (P48145 1-328): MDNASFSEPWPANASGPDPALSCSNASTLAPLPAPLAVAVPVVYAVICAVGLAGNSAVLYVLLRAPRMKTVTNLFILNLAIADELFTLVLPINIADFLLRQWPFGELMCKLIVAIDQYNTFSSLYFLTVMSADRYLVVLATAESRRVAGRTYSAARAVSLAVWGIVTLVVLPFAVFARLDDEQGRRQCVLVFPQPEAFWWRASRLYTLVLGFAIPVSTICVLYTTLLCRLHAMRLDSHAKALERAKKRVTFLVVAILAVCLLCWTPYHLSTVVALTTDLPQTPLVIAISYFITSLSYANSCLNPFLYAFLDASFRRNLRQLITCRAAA
Assay: Test on binding inhibition of various peptides against human GPR7-expressed CHO cell membrane fraction
Design: The synthetic primers were constructed so as to amplify the gene in the region to be translated to its receptor protein; expressed in transfected cells; host or cells: CHO cells, membrane fraction
Conditions: iodine-labeled hGPR7L-23; human GPR7-expressed CHO cell membrane fraction 1 μg/well; room temperature 1.5 hour
Description: A mixture of 20 μl of hGPR7L-23 (SEQ ID NO:1) (0.1 mM or 1 mM), 20 μl of lactoperoxidase (Sigma; prepared using 10 μg/ml and 0.1M HEPES-NaOH pH7.0), 20 μl of Idoine-125 (manufactured by Amersham, MS-30, 74 MBq), 20 μl of 0.005% hydrogen peroxide (manufactured by Wako Pure Chemical Industries, Ltd.) was allowed to stand at room temperature for 20 to 30 minutes. Then, 600 μl of 0.1% TFA was added to the mixture. The mixture was applied to reverse phase HPLC for separation and the peaks of the two'labeled products were fractionated in a tube charged with 1 mL of DMSO. Immediately, the fraction was stored on ice and an aliquot was provided for measurement of the radioactivity with a γ-counter. The remaining preparation was dispensed and stored at −30° C.
Human GPR7-expressed CHO cells were cultured in a flask. The flask was washed with 5 mM EDTA/PBS to strip the cells off. The cells were stripped off with 5 mM EDTA/PBS and centrifuged for recovery. The recovered cells were suspended in 25 mL of a buffer for preparing membrane fraction (50 mM Tris-HCl, pH7.5, 5 mM EDTA, 0.1% bovine serum albumin (manufactured by Sigma), 0.5 mM PMSF (manufactured by Wako Pure Chemical Industries, Ltd.), 20 μg/mL leupeptin (manufactured by Peptide Research Institute), 0.1 μg/mL pepstatin A (manufactured by Peptide Research Institute) and 4 μg/mL E-64 (manufactured by Peptide Research Institute)), followed by homogenization on ice using a polytron (12,000 rpm, 15 seconds×3 times). The homogenate was centrifuged at 4° C. under 1,000 g for 10 minutes with a high speed cooling centrifuge to recover the supernatant. […] The pellets were recovered and suspended in a small quantity of the buffer for preparing membrane fractions. […]
Using the assay buffer, the human GPR7-expressed CHO cell membrane fraction was diluted in a final concentration of 1 μg/well and iodine-labeled hGPR7L-23 (SEQ ID NO:1) was diluted in a final concentration of […]. […] After 50 μl of a liquid scintillator was dispensed thereto, the radioactivity was counted on a Top Count (Packard) and the data was analyzed in triplet (FIG. 33). […]

IC50: 0.31 nM
Sequence: WYKPTAGQGYYSVGRAAGLLSGFHRSPYA [Trp1-bovine GPR7L(29)]
